Results reported in PubChem BioAssay AID1552 (Sanford-Burnham Center for Chemical Genomics, 2009).
Active and inactive are the calls of the source. The rule behind the calls is not given here.

These compounds were tested against Ubiquitin-conjugating enzyme E2 N (Homo sapiens) (UniProt P61088) (assay: UBE2N binders by NMR, biophysical, purified protein (AID 1552)). Details: NMR binding to purified UBE2N.
Sequence of Ubiquitin-conjugating enzyme E2 N (Homo sapiens) (P61088 whole entry, looked up): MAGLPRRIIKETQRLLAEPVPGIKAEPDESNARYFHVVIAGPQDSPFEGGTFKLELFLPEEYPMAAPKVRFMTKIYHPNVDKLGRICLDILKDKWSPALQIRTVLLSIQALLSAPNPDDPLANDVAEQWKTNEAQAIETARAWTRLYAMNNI

Compound | Kd
C=CCn1c(=S)[nH]c2ccc(Br)cc2c1=O | > 4 mM (inactive)
COc1ccc2c(c1OC)C(=O)OC2[C@H]1c2c(cc3c(c2OC)OCO3)CCN1C (some centres not stated) | > 4 mM (inactive)
Cc1ccc(-n2cnnn2)c2cccnc12 | > 4 mM (inactive)
c1ccc(Cc2nnc3sc(-c4cccnc4)nn23)cc1 | > 4 mM (inactive)
NCCC(=O)N[C@@H](Cc1cnc[nH]1)C(=O)O | > 4 mM (inactive)
Cc1occc1C(=O)N1CCN(S(C)(=O)=O)CC1 | > 4 mM (inactive)
Cc1cccc(N2C(=O)CCC2=O)n1 | > 4 mM (inactive)
O=C1Cn2c(nc3ccccc32)N1c1ccccc1F | > 4 mM (inactive)
O=[n+]1c2c(n([O-])c3ccccc31)CCCC2 | > 4 mM (inactive)
COc1c2ccoc2nc2c(OC)c(OCC(O)C(C)(C)O)ccc12 (configuration not stated) | > 4 mM (inactive)
COc1cc2c(cc1O)CC1c3c(cc(O)c(OC)c3-2)CCN1C (configuration not stated) | > 4 mM (inactive)
NC(=O)c1ccc2c(c1)OCO2 | > 4 mM (inactive)
Cc1cc(=O)n2nc(-c3ccccc3)sc2n1 | > 4 mM (inactive)
NCCc1nc2ccccc2[nH]1 | > 4 mM (inactive)
CSc1ccc(S(=O)(=O)N2CCCC2)cc1 | > 4 mM (inactive)
c1ccc(-c2nc3ccccc3nc2-c2ccccn2)nc1 | > 4 mM (inactive)
O=C1NC(=O)/C(=C/c2ccc(O)cc2)N1 | > 4 mM (inactive)
COc1ccc(NC2=NCC(C)S2)cc1 (configuration not stated) | > 4 mM (inactive)
CCC[C@@H]1CCCCN1 | > 4 mM (inactive)
CC(=O)Nc1cccc(N2CCCC2=O)c1 | > 4 mM (inactive)
c1ccc(Cn2c(Nn3cnnc3)nc3ccccc32)cc1 | > 4 mM (inactive)

Compound | Kd
O=c1c[n+]([O-])c2ccccc2n1OCc1ccccc1 | > 4 mM (inactive)
CN1CC(=O)N=C1N | > 4 mM (inactive)
COCC(=O)OCn1nnc2ccccc2c1=O | > 4 mM (inactive)
CCOc1ccc2nc(NS(C)(=O)=O)sc2c1 | > 4 mM (inactive)
COc1ccc2[nH]cc(CCNC(C)=O)c2c1 | > 4 mM (inactive)
Cc1cc(O)c(C=O)c(O)c1C(=O)O | > 4 mM (inactive)
CC(=O)O[C@@H]1c2c(ccc3ccc(=O)oc23)OC(C)(C)[C@@H]1OC(=O)CC(C)C | > 4 mM (inactive)
CCCCCCCCCCCCCCC(C(=O)O)C(O)(CC(=O)OC)C(=O)O (configuration not stated) | > 4 mM (inactive)
COc1cc(C/C=C/c2ccccc2)c(OC)cc1O | > 4 mM (inactive)
Cc1nnc(SCC(N)=O)c2ccccc12 | > 4 mM (inactive)
OCCNc1nc2ccc(Cl)cc2[nH]1 | > 4 mM (inactive)
O=C1C=CC(=O)N1c1ccc(N2CCOCC2)cc1 | > 4 mM (inactive)
CN(C)c1ccc(C2CC(=O)CC(=O)C2)cc1 | > 4 mM (inactive)
O=c1nc(N2CCOCC2)nc2n1CCO2 | > 4 mM (inactive)
O=C(NCc1ccco1)c1ccc(=O)[nH]c1 | > 4 mM (inactive)
O=C(O)c1snnc1-c1ccccc1 | > 4 mM (inactive)
O=C(Nn1cnnc1)c1ccccc1Cl | > 4 mM (inactive)
COc1nc(C#N)c(N2CCOCC2)o1 | > 4 mM (inactive)
O=C1CCC(=O)N1CN1CCOCC1 | > 4 mM (inactive)
Cc1nnc(NCc2ccc3c(c2)OCO3)[nH]c1=O | > 4 mM (inactive)
Cn1nnc2cc(C(=O)N3CCSCC3)ccc21 | > 4 mM (inactive)

Compound | Kd
COc1ccc2c(c1)OC/C(=C/c1ccc(O)c(O)c1)C2=O | > 4 mM (inactive)
COc1c2ccoc2cc2oc(=O)ccc12 | > 4 mM (inactive)
C=C1CCC(=O)C(C)CCC2C1CC2(C)C (configuration not stated) | > 4 mM (inactive)
COc1ccc(-c2cc(=O)c3c(O)cc(O[C@H]4O[C@H](CO[C@@H]5O[C@@H](C)[C@H](O)[C@@H](O)[C@H]5O)[C@@H](O)[C@H](O)[C@H]4O)cc3o2)cc1 | > 4 mM (inactive)
NCc1ccc(S(N)(=O)=O)cc1 | > 4 mM (inactive)
CC(=O)Oc1c2c(c3c(c1CC=C(C)C)O[C@]14C(=C[C@@H]5CC1C(C)(C)OC4(C/C=C(\C)C(=O)O)C5=O)C3=O)OC(C)(CCC=C(C)C)C=C2 (some centres not stated) | > 4 mM (inactive)
CNC(=O)C(=O)NCc1ccc(C)cc1 | > 4 mM (inactive)
CC(C)=CC(=O)Nc1ccccc1Br | > 4 mM (inactive)
O=C(NCc1ccncc1)c1cccc(F)c1 | > 4 mM (inactive)
CC(=O)Nc1ccc(N2CCOCC2)cc1 | > 4 mM (inactive)
CCNC(=S)N1CCCC(C(N)=O)C1 (configuration not stated) | > 4 mM (inactive)
CCOC(=O)c1cc(C)n(C)n1 | > 4 mM (inactive)
Cc1ccccc1NC(=O)CC1NCCNC1=O (configuration not stated) | > 4 mM (inactive)
NC(=O)NC1C=CS(=O)(=O)C1 (configuration not stated) | > 4 mM (inactive)
Fc1cccc(F)c1CN1CCN(c2ncccn2)CC1 | > 4 mM (inactive)
Nc1nc2[nH]c(=O)c(=O)[nH]c2c(=O)[nH]1 | > 4 mM (inactive)
CC(C)c1ccc(NC(=O)C(N)=O)cc1 | > 4 mM (inactive)
O=C1CSC(=O)N1CN1CCOCC1 | > 4 mM (inactive)
Cc1ccc(CN2C3=NC(=O)CN3c3ccccc32)cc1 | > 4 mM (inactive)
O=C(NS(=O)(=O)c1ccccc1)c1ccccc1F | > 4 mM (inactive)
